What was measured:
[1] = tested on: MIA Paca-2 tumors; settings: mice, single dose; cited from earlier work
[2] = tested on: MIA Paca-2 tumors; experiment: Survival study, phototreatment efficacy (Example 1); assay type: in vivo
Protocol: Survival study. 5×10^6 MIA Paca-2 cells (obtained from ATTC) were injected in the right flank female nude mice mice (5 weeks, Jackson Labs, #007850). […] N=5-6. Dose for Dox-PoP is 7 mg/kg for Dox and the dose of PoP was adjusted to be equivalent to that of Dox-PoP 7 mg/kg (Dox to lipid loading ratio 1:5), which is 1.225 mg/kg (1.21 μmol/kg Pyro-phospholipid). […] 21 mg/kg of sterically stabilized liposomal Dox (HSPC:CHOL:DSPE-PEG-2K=56.3:38.4:5.3% mole) was used for standard treatment of Doxil®. Free Dox 7 mg/kg was used as a free drug control. 1 h after intravenous injection, tumors that need laser treatment were all irradiated at a fluence rate of 300 W/cm^2 for 16 min 40 s (total fluence 300 J/cm^2). HPPH was diluted in PBS containing 2% ethanol and 0.2% Tween 80 and injected at a dose of 1.21 μmol/kg. Light treatment was performed 24 h post injection. Tumor size was monitored 2-3 times per week and tumor volumes were estimated by measuring three tumor dimensions using a caliper and the ellipsoid formula: Volume=π·L·W·H/6, where L, W and H are the length, width and height of the tumor, respectively. The weights of the mice were monitored every week. MIA PaCa-2 mice were sacrificed when the volume exceeded 10 times of its initial volume.
For Kaplan-Meier survival curve, each pair of group were compared by Log-rank (Mantel-Cox) test. […]

[3] = mice; cited from earlier work

In the case of `COc1cccc2c1C(=O)c1c(O)c3c(c(O)c1C2=O)C[C@@](O)(C(=O)CO)C[C@@H]3O[C@H]1C[C@H](N)[C@H](O)[C@H](C)O1` [Free Dox, Doxorubicin], the maximum tolerated dose [1] is given as 7 mg/kg and the median survival ([2]; 7 mg/kg, single dose, no laser) is given as 19 days.

For `C=CC1=C(C)c2cc3[nH]c(c4c5nc(cc6[nH]c(cc1n2)c(C)c6CC)C(C)=C5C(=O)C4)C(CCC(=O)OC(COC(=O)CCCCCCCCCCCCCCC)COP(=O)([O-])OCC[N+](C)(C)C)C3C` (stereo not shown) [Pyro-phospholipid], the well-tolerated intravenous dose [3] is given as no more than 1000 mg/kg.

HPPH showed a median survival ([2]; conventional PDT, 1.21 μmol/kg, light 24 h post injection, 300 J/cm^2) of 38 days.

Reference: patent US10918599B2, “Serum-stable compositions and methods for light-triggered release of materials” (priority 2015, dated 2021)
